Laboratory results reported in US20080200441A1, “ESTROGEN RECEPTOR MODULATORS ASSOCIATED PHARMACEUTICAL COMPOSITIONS AND METHODS OF USE” (University of Southern California, priority 2007, published 2008).

How the values were obtained:
[1] = system: ERK2; assay: ERK phosphorylation, Western immunoblotting; conditions: 10 nM, 30 min
[2] = biological target: full-length human ERβ (Homo sapiens, UniProt Q92731); assay: Fluorescence polarization-based competitive binding assay, ERβ
[3] = system: spinophilin; assay: Spinophilin expression in hippocampal neurons; conditions: 100 nM, 48 h
[4] = system: MCF-7 cells; assay: MCF-7 cell proliferation, MTT; type: cell-based, human; conditions: 3 days, serially diluted concentrations, MTT at 570 nm
[5] = biological target: T1, full-length human ERα (Homo sapiens, UniProt P03372); assay: Fluorescence polarization-based competitive binding assay, ERα
T1 sequence (P03372 1-595): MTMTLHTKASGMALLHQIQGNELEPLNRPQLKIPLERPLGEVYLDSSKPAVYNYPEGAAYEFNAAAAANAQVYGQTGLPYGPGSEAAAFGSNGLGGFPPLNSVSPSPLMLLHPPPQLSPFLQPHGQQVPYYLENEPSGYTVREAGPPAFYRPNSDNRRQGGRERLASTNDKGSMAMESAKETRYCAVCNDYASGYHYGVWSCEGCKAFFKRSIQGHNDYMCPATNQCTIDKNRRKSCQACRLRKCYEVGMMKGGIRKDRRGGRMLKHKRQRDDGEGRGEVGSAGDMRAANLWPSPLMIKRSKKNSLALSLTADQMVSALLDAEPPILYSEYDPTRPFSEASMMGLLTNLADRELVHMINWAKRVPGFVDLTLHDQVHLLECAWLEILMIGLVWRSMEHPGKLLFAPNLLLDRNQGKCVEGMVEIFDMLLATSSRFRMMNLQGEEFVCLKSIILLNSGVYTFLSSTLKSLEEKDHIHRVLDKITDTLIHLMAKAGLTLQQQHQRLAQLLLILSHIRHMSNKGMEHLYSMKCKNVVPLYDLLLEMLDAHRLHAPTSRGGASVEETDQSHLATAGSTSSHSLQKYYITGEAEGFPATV

[6] = system: Bcl-2; assay: Bcl-2 expression, Western immunoblotting; conditions: 100 nM, 48 h
[7] = system: rat primary hippocampal neurons; assay: Neuroprotection against glutamate-induced neurotoxicity, calcein AM staining; type: cell-based
Excerpt: The combined use of Calcein AM and Ethidium Homodimer-1 (Molecular Probes, Inc., Eugene, Oreg.) provides a two-color fluorescence analysis that allows simultaneous determination of live and dead cells with two probes that measure two recognized parameters of cell viability respectively, intracellular esterase activity and plasma membrane integrity. Calcein AM is a fluorogenic esterase substrate that enters the live cells through permeability and is enzymatically hydrolyzed to form the polyanionic dye calcein, which is well retained within live cells due to the intact plasma membranes and produces an intense uniform green fluorescence at 530 nm. Ethidium homodimer is excluded from live cells and only able to enter cells through compromised plasma membranes and binds to nucleic acid by intercalating between the base pairs, producing a bright red fluorescence at 645 nm. Therefore, Calcein AM and ethidium homodimer serve as two indicators for the identification of live and dead cells respectively.
Cultures were rinsed with phosphate-buffered saline (PBS) and incubated with the combined 1 μM calcein AM and 2 μM ethidium homodimer PBS solution at room temperature for 30 min. The fluorescence intensities were measured on a SpectraMax GEMINI EM dual-wavelength-scanning microplate spectrofluometer (Molecular Devices Corp., Sunnyvale, Calif.) using appropriate excitation and emission filter combinations (485/530 nm for calcein AM and 530/645 nm for ethidium homodimer).

[8] = system: rat primary hippocampal neurons; assay: Neuroprotection against glutamate-induced neurotoxicity, LDH release; type: cell-based
[9] = system: rat primary hippocampal neurons; assay: Neuroprotective efficacy (NE) against glutamate-induced neurotoxicity over time; type: cell-based; conditions: for Neuroprotective efficacy 2 hours after glutamate exposure / Neuroprotective efficacy 5 hours after glutamate exposure / Neuroprotective efficacy 7.5 hours after glutamate exposure / Neuroprotective efficacy 10 minutes after glutamate exposure: glutamate 200 μM; for time course of neuroprotection: early vs later time points after glutamate
Description: FIGS. 13A-E are graphs showing the neuroprotective efficacy of NS2 (FIG. 13A); NS1-1 (FIG. 13B); NS1-2 (FIG. 13C); NS1-3 (FIG. 13D); and NS1-4 (FIG. 13E) against glutamate-induced neurotoxicity in rat primary hippocampal neurons as a function of time and concentration (nM).
The assay for evaluating neuroprotective efficacy after glutamate exposure is discussed above. The following compounds were evaluated: NS2; NS1-1; NS1-2; NS1-3; and NS1-4. The results are shown in the Tables 4-8 and are presented graphically in FIGS. 13A-E.
Results are presented as neuroprotective efficacy (NE), which is defined as the percentage of neurotoxin-induced toxicity prevented by the test compounds (or combinations) and quantified by the equation:
NE=(Vtreatment−Vneurotoxin)/(Vcontrol−Vneurotoxin)*100%
where Vtreatment is the individual value from the test compounds (or combinations)-treated cultures, Vneurotoxin is a mean value from glutamate treated cultures, and Vcontrol is a mean value from vehicle-treated control cultures.

full-length human ERβ, sequence (Q92731 whole entry): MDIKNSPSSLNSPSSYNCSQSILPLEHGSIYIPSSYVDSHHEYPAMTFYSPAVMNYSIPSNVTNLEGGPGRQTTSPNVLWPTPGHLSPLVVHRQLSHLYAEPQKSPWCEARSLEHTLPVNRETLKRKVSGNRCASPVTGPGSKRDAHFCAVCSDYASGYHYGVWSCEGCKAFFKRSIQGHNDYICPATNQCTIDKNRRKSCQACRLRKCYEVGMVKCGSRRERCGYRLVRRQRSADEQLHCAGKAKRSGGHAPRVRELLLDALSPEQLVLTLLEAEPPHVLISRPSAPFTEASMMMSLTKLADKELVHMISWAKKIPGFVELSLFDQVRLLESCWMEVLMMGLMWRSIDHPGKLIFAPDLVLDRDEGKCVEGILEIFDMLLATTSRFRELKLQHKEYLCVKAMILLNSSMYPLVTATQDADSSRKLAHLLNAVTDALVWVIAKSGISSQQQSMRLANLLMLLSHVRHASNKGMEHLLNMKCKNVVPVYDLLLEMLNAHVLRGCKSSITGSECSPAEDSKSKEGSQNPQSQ

Structure (SMILES) | Neuroprotective efficacy 2 hours after glutamate exposure ([9]; 1 nM) | Neuroprotective efficacy 2 hours after glutamate exposure ([9]; 10 nM) | Neuroprotective efficacy 2 hours after glutamate exposure ([9]; 100 nM) | Neuroprotective efficacy 2 hours after glutamate exposure ([9]; 1000 nM) | time course of neuroprotection [9] | Neuroprotective efficacy 7.5 hours after glutamate exposure ([9]; 1 nM) | Neuroprotective efficacy 7.5 hours after glutamate exposure ([9]; 10 nM) | Neuroprotective efficacy 7.5 hours after glutamate exposure ([9]; 100 nM) | Neuroprotective efficacy 7.5 hours after glutamate exposure ([9]; 1000 nM) | also measured
C[C@]12CC[C@@H]3c4ccc(O)cc4CC[C@H]3[C@@H]1CC[C@@H]2O [17β-estradiol] |  |  |  |  |  |  |  |  |  | increase in ERK2 phosphorylation compared to vehicle [1]: 38.0±7.7%
CC(C)CCC[C@@H](C)CCC[C@@H](C)CCC[C@@H]1Cc2cc(O)ccc2C2CC[C@@]3(C)C(CC[C@@H]3O)C21 (stereo partly drawn) [NS1, 7α-[(4R,8R)-4,8,12-trimethyltridecyl]estra-1,3,5-trien-3,17β-diol] |  |  |  |  |  |  |  |  |  | IC50 ([2]; competition with EL Red): 0.267 µM; increase in spinophilin expression compared to vehicle [3]: 61.7±8.2%; MCF-7 cell proliferation [4]: does not induce MCF-7 cell proliferation; IC50 [5]: 0.193 µM; increase in Bcl-2 expression compared to vehicle [6]: 23.4±6.8%; increase in neuronal metabolic viability compared with glutamate alone (calcein AM) ([7]; 1 nM): 2.7±3.2%; increase in neuronal metabolic viability compared with glutamate alone (calcein AM) ([7]; 10 nM): 9.3±3.7%; increase in neuronal metabolic viability compared with glutamate alone (calcein AM) ([7]; 100 nM): 28.4±3.2%; increase in neuronal metabolic viability compared with glutamate alone (calcein AM) ([7]; 1000 nM): 25.6±4.4%; less potency than 17β-estradiol and ICI 182,780 in neuroprotection [8]: 10 fold; increase in neuronal membrane integrity compared with glutamate alone (LDH release) ([8]; 1 nM): 38.6±3.8%; increase in neuronal membrane integrity compared with glutamate alone (LDH release) ([8]; 10 nM): 44.1±3.8%; increase in neuronal membrane integrity compared with glutamate alone (LDH release) ([8]; 100 nM): 67.0±4.0%; increase in neuronal membrane integrity compared with glutamate alone (LDH release) ([8]; 1000 nM): 59.1±3.7%
CCCCCCCCCCCCCCCC[C@@H]1Cc2cc(O)ccc2C2CC[C@@]3(C)C(CC[C@@H]3O)C21 (stereo partly drawn) [NS1-1] | 12.7957% | 41.8183% | 77.2530% | 70.8102% | neuroprotective at early time points with diminished protection at later time points |  |  |  |  | Neuroprotective efficacy 5 hours after glutamate exposure ([9]; 1 nM): 3.769%; Neuroprotective efficacy 5 hours after glutamate exposure ([9]; 10 nM): 20.8614%; Neuroprotective efficacy 5 hours after glutamate exposure ([9]; 100 nM): 23.8415%; Neuroprotective efficacy 5 hours after glutamate exposure ([9]; 1000 nM): 11.9900%
C[C@]12CCC3c4ccc(O)cc4C[C@@H](CCCCCCCCCCCCCCCCO)C3C1CC[C@@H]2O (stereo partly drawn) [NS1-2] | 17.5192% | 51.3940% | 32.3028% | 24.9982% | neuroprotective at early time points and increases in magnitude at later time points | 26.5265% | 76.6877% | 93.0520% | 47.1665% | 
C[C@]12CCC3c4ccc(O)cc4C[C@@H](CCCCCCCCCCCCCCCCOCc4ccccc4)C3C1CC[C@@H]2O (stereo partly drawn) [NS1-3] | 15.44% | 55.77% | 87.33% | 78.43% | neuroprotective at early time points with diminished protection at later time points | 8.102% | 28.06% | 51.87% | 53.3893% | 
CC(C)CCC[C@@H](C)CCC[C@@H](C)CCC[C@H](C)CC[C@@H]1Cc2cc(O)ccc2C2CC[C@@]3(C)C(CC[C@@H]3O)C21 (stereo partly drawn) [NS1-4] | 51.86% | 86.27% | 110.3902% | 94.3991% | neuroprotective at early time points with diminished protection at later time points | 8.415% | 28.8% | 69.76% | 38.0418% | 
CC(C)=CCC/C(C)=C/CC/C(C)=C/CC1=C(c2ccc(O)cc2)C(=O)c2ccc(O)cc2C1=O [NS2] | 3.937% | 30.96% | 68.16% | 73.84% | neuroprotective at early time points and increases in magnitude at later time points |  |  |  |  | Neuroprotective efficacy 10 minutes after glutamate exposure ([9]; 1 nM): −10.3103%; Neuroprotective efficacy 5 hours after glutamate exposure ([9]; 1 nM): 24.94%; Neuroprotective efficacy 10 minutes after glutamate exposure ([9]; 10 nM): −3.6302%; Neuroprotective efficacy 5 hours after glutamate exposure ([9]; 10 nM): 44%; Neuroprotective efficacy 10 minutes after glutamate exposure ([9]; 100 nM): 33.68%; Neuroprotective efficacy 5 hours after glutamate exposure ([9]; 100 nM): 71.35%; Neuroprotective efficacy 10 minutes after glutamate exposure ([9]; 1000 nM): 40.51%; Neuroprotective efficacy 5 hours after glutamate exposure ([9]; 1000 nM): 76.45%
CC(=O)[C@H]1CC[C@H]2[C@@H]3CCC4=CC(=O)CC[C@]4(C)[C@H]3CC[C@]12C [progesterone, reference compound] |  |  |  |  |  |  |  |  |  | binding to ERβ ([2]; negative control): does not bind; binding to ERα ([5]; negative control): does not bind
